Laboratory results from ChEMBL document CHEMBL4699514, “Glucose Uptake-Stimulating Galloyl Ester Triterpenoids from Castanopsis sieboldii” (2020).
Activity calls are given as the source filed them. The rule behind the calls is not given here.

Assays:
3T3-L1 = test: Induction of glucose uptake in mouse 3T3-L1 adipocytes assessed as [3H]2-deoxy-D-glucose uptake incubated for 1 hr followed by [3H]2-deoxy-D-glucose addition by fluorescence microscopic method; type: functional; settings: read-out: ED50 (the source's name)
C2C12 = test: Activation of AMPK pathway in mouse C2C12 cells assessed as increase in AMPK phosphorylation at 10 to 20 uM after 60 mins by Western blot analysis; type: cell-based; settings: filed as activator, dose microM 10-20, time 60.0 min

CC1(C)CC[C@]2(C(=O)O[C@@H]3O[C@H](CO)[C@@H](O)[C@H](O)[C@H]3O)CC[C@]3(C)C(=CC[C@@H]4[C@@]5(C)C[C@@H](O)[C@H](OC(=O)c6cc(O)c(O)c(O)c6)C6(COC(=O)c7cc(O)c(O)c(O)c7-c7c(cc(O)c(O)c7O)C(=O)OC6)[C@@H]5CC[C@]43C)[C@@H]2C1
EC50 (3T3-L1): 10.6 µM

CC1(C)CC[C@]2(C(=O)O)CC[C@]3(C)C(=CC[C@@H]4[C@@]5(C)C[C@@H](O)[C@H](O)C(CO)(CO)[C@@H]5CC[C@]43C)[C@@H]2C1
EC50 (3T3-L1): 6.89 µM

CC1(C)CC[C@]2(C(=O)O[C@@H]3O[C@H](CO)[C@@H](O)[C@H](O)[C@H]3O)CC[C@]3(C)C(=CC[C@@H]4[C@@]5(C)C[C@@H](O)[C@H](OC(=O)c6cc(O)c(O)c(O)c6)[C@](CO)(COC(=O)c6cc(O)c(O)c(O)c6)[C@@H]5CC[C@]43C)[C@@H]2C1
EC50 (3T3-L1): 12.1 µM | Activity (C2C12): Active
